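Tested at 5 concentrations; 48 h exposure; 96-well plates; endpoints linearly interpolated, else capped at highest concentration. GI50 = concentration required for 50% inhibition of growth.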 The source made the active and inactive calls. No stated cut-off is given here; in the data, active = GI50 up to about 1.1 µM and inactive = higher.
Legend:
Assay in all cases: inhibition of tumour cell growth, NCI panel, 48 h
SK-OV-3 = tested on: SK-OV-3
IGROV-1 = tested on: IGROV-1
A498 = tested on: A498
M14 = tested on: M14
TK-10 = tested on: TK-10
NCI-H23 = tested on: NCI-H23
NCI-H460 = tested on: NCI-H460
SK-MEL-28 = tested on: SK-MEL-28
ACHN = tested on: ACHN
SNB-75 = tested on: SNB-75
OVCAR-4 = tested on: OVCAR-4
HCT-15 = tested on: HCT-15
MDA-MB-435 = tested on: MDA-MB-435
NCI-H226 = tested on: NCI-H226
EKVX = tested on: EKVX
UO-31 = tested on: UO-31
SK-MEL-5 = tested on: SK-MEL-5
SNB-19 = tested on: SNB-19
MDA-N = tested on: MDA-N

SMILES | GI50 (SK-OV-3) | GI50 (IGROV-1) | GI50 (A498) | GI50 (M14) | GI50 (TK-10) | GI50 (NCI-H23) | GI50 (NCI-H460) | GI50 (SK-MEL-28) | GI50 (ACHN) | GI50 (SNB-75) | GI50 (OVCAR-4) | GI50 (HCT-15) [µM] | GI50 (MDA-MB-435) | GI50 (NCI-H226) | GI50 (EKVX) | GI50 (UO-31) | GI50 (SK-MEL-5) | GI50 (SNB-19) | GI50 (MDA-N)
C=C(CCC/C(C)=C/C=C/[C@]1(C)CCCc2ccoc21)CC(=O)O | > 100 µM (inactive) | > 100 µM (inactive) | > 100 µM (inactive) | > 100 µM (inactive) | > 100 µM (inactive) | > 100 µM (inactive) | > 100 µM (inactive) | > 100 µM (inactive) | > 100 µM (inactive) | > 100 µM (inactive) | > 100 µM (inactive) | 98.9 | > 100 µM (inactive) | > 100 µM (inactive) | > 100 µM (inactive) | > 100 µM (inactive) | > 100 µM (inactive) | > 100 µM (inactive) | 
COc1ccc(N2/C(=N/c3ccccc3)SC(=N/S(=O)(=O)c3ccccc3)/C2=N\S(=O)(=O)c2ccccc2)cc1 |  | 13 µM (inactive) | 20.1 µM (inactive) | 33.7 µM (inactive) | 20.1 µM (inactive) | 12.9 µM (inactive) | 11.3 µM (inactive) | 14.5 µM (inactive) | 23.3 µM (inactive) | 19.4 µM (inactive) |  | 13.3 |  | 21.8 µM (inactive) | 22.6 µM (inactive) | 19.2 µM (inactive) | 16.6 µM (inactive) | 18.7 µM (inactive) | 
c1ccc(Cc2nc(Cc3n[nH]c(Cc4ccccc4)n3)n[nH]2)cc1 | > 100 µM (inactive) | > 100 µM (inactive) |  | > 100 µM (inactive) | > 100 µM (inactive) | > 100 µM (inactive) |  | > 100 µM (inactive) | > 100 µM (inactive) | > 100 µM (inactive) | > 100 µM (inactive) | > 100 | > 100 µM (inactive) |  | > 100 µM (inactive) | > 100 µM (inactive) | > 100 µM (inactive) | > 100 µM (inactive) | > 100 µM (inactive)
O=C(O)c1ccc(Nc2nc3cc(C(F)(F)F)ccc3nc2-c2ccccc2)cc1 |  | 13.4 µM (inactive) |  |  | 15.2 µM (inactive) | 19 µM (inactive) | 19.1 µM (inactive) | 28.6 µM (inactive) | 19.1 µM (inactive) | 18.3 µM (inactive) |  | 12.9 | 31.6 µM (inactive) | 25 µM (inactive) | 11.3 µM (inactive) | 17.1 µM (inactive) | 21 µM (inactive) | 30.6 µM (inactive) | 30.6 µM (inactive)
COC(=O)c1c(C)cccc1/C=C1\Cc2ccc(C)c(C)c2C1=O |  | > 100 µM (inactive) | 31 µM (inactive) | 52.4 µM (inactive) | > 100 µM (inactive) | > 100 µM (inactive) | > 100 µM (inactive) | > 100 µM (inactive) | > 100 µM (inactive) | 40.6 µM (inactive) | 22.3 µM (inactive) | > 100 |  | > 100 µM (inactive) | > 100 µM (inactive) | 28.8 µM (inactive) | > 100 µM (inactive) | 52.5 µM (inactive) | > 100 µM (inactive)
OC1CCN(c2c3ccccc3nc3ccccc23)CC1 | 39.7 µM (inactive) | 14.6 µM (inactive) | 19 µM (inactive) | 6.92 µM (inactive) | 4.03 µM (inactive) | 8.02 µM (inactive) | 21.3 µM (inactive) | 2.69 µM (inactive) | 8.71 µM (inactive) | 23.8 µM (inactive) | 17.6 µM (inactive) | 16.5 | 19.7 µM (inactive) | 34.2 µM (inactive) | 55.2 µM (inactive) | 2.45 µM (inactive) | 19.7 µM (inactive) | 27.9 µM (inactive) | 
CCOC(=O)N1C=CC(=C2C(=C3C=CN(C(=O)OCC)C=C3)C(=C3C=CN(C(=O)OCC)C=C3)C2=C2C=CN(C(=O)OCC)C=C2)C=C1 | 44 µM (inactive) | 16.1 µM (inactive) |  | 28.3 µM (inactive) | 26 µM (inactive) | 26.2 µM (inactive) | 22.9 µM (inactive) | 27.5 µM (inactive) | 2.98 µM (inactive) | 47.1 µM (inactive) | 38 µM (inactive) | 12.4 | 22.2 µM (inactive) | 22.3 µM (inactive) | 48.5 µM (inactive) | 12.9 µM (inactive) | 26.5 µM (inactive) | 64.6 µM (inactive) | 
OC1CCC(C2C3CCCCC3C3CCCCC3C2C2CCC(O)CC2)CC1 (stereo not drawn) | 5.19 µM (inactive) | 3.7 µM (inactive) | 15.8 µM (inactive) | 5.19 µM (inactive) | 5.18 µM (inactive) | 3.08 µM (inactive) | 2.96 µM (inactive) | 3.83 µM (inactive) | 2.98 µM (inactive) | 5.38 µM (inactive) | 4.04 µM (inactive) | 2.49 | 4.19 µM (inactive) | 6 µM (inactive) | 9.89 µM (inactive) | 4.81 µM (inactive) | 10.4 µM (inactive) | 6.44 µM (inactive) | 
NN/C(=N\S(=O)(=O)c1cc(S(=O)(=O)c2ccccc2)cs1)Nc1ccc(Cl)cc1 | 43.7 µM (inactive) | 25.9 µM (inactive) | 33.8 µM (inactive) | 22 µM (inactive) | 24.8 µM (inactive) | 23.8 µM (inactive) | 22.5 µM (inactive) | 35.2 µM (inactive) | 27.5 µM (inactive) | 21.9 µM (inactive) | 20 µM (inactive) | 34.3 |  | 33.1 µM (inactive) | 13.6 µM (inactive) | 28.8 µM (inactive) | 16.9 µM (inactive) | 42.1 µM (inactive) | 20.5 µM (inactive)
CC(C)[Si](OCC1CC(C[C@H]2CC(C[C@H]3C[C@@H](CO[Si](C(C)C)(C(C)C)C(C)C)OC(C)(C)O3)OC(C)(C)O2)OC(C)(C)O1)(C(C)C)C(C)C (stereo partly drawn) | > 100 µM (inactive) | > 100 µM (inactive) | > 100 µM (inactive) | > 100 µM (inactive) | > 100 µM (inactive) | > 100 µM (inactive) | > 100 µM (inactive) | > 100 µM (inactive) | > 100 µM (inactive) | > 100 µM (inactive) | > 100 µM (inactive) |  |  | > 100 µM (inactive) | > 100 µM (inactive) | > 100 µM (inactive) | > 100 µM (inactive) | > 100 µM (inactive) | 
C=C1C2C[C@@H]3O[C@H]4C[C@H]5O[C@@]6(C[C@@H]7O[C@]8(C[C@H](C)[C@@H]9O[C@@H]%10CC(C=O)O[C@@H]%10C[C@@H]9O8)C[C@H](C)[C@@H]7O6)C[C@H]5O[C@H]4[C@H](C)[C@H]3OC(=O)C[C@H]3CC[C@@H]4OC5[C@H]6O[C@]7(CC[C@H]8CC(=C)[C@H](CC[C@@H](C[C@H]1C)O2)O8)CC6O[C@@H]5[C@@H](O7)[C@H]4O3 (stereo partly drawn) |  | < 0.0001 µM (active) |  | < 0.0001 µM (active) | 0.00771 µM (active) | < 0.0001 µM (active) | < 0.0001 µM (active) |  | < 0.0001 µM (active) | < 0.0001 µM (active) |  | < 0.0001 | < 0.0001 µM (active) | < 0.0001 µM (active) | < 0.0001 µM (active) | < 0.0001 µM (active) | < 0.0001 µM (active) | 0.000104 µM (active) | < 0.0001 µM (active)

— ChEMBL document CHEMBL1201862, “PubChem BioAssay data set” (2004)
